Values joined by “and” are separate entries in the source; they are usually repeats but may differ in a detail not shown here. Identical values can stand only once.
How the values were obtained:
Pristionchus pacificus = Pristionchus pacificus motor disruption dose-response on solid media, 1 h; conditions: for mean % any phene (coiled, jerky-Unc or paralyzed): Pristionchus pacificus young adults, mean of three biological replicates; for EC50: Pristionchus pacificus, 1 h, read-out: P. pacificus motor disruption EC50
[1] = system: Dirofilaria immitis microfilariae; experiment: Dirofilaria immitis microfilariae immobility assay (DiroImager, 72 h); conditions: for % effect (motility), DIROIM MF: Dirofilaria immitis microfilariae
Experimental: We conducted experiments with the Missouri isolate of Dirofilaria immitis in two labs. In the first set of experiments, shown as part of Fig. 3c, D. immitis microfilariae and larval stage 3 (L3) worms were assayed in the laboratories of Bayer Animal Health GmbH (Monheim, Germany). For microfilariae immobility assays, approximately 250 freshly purified microfilariae were cultured in single wells of a 96-well microtiter plate containing supplemented RPMI 1640 medium[68],[69]. […] Microfilariae exposed to medium substituted with 1% DMSO were used as negative controls. Motility of microfilariae was evaluated after 72 h of drug exposure using an image-based approach—DiroImager, developed by Bayer Technology Services. As described in detail in refs. [68],[69], the DiroImager is an automated high-throughput platform that allows for high-resolution optical imaging of an entire 96-well microtiter plate.

[2] = system: Dirofilaria immitis L3/L4; experiment: Dirofilaria immitis L3/L4 motility assay (DiroImager, 72 h); conditions: Dirofilaria immitis L4
C. elegans = C. elegans motor phenotype scoring on solid media (Punc/jerky-unc, coiled, paralyzed), wild-type young adults; type: in vivo, Caenorhabditis elegans; conditions: for any phene (mean % fraction of young adults exhibiting any phenotype: coiled, jerky-Unc or paralyzed) / any phene, mean % fraction of young adults exhibiting any phenotype (coiled, jerky-Unc or paralyzed) / atypical locomotion (number of animals) / coiled (number of animals) / no phene (number of animals) / paralyzed (number of animals): one hour; for any phene (mean % fraction of young adults exhibiting any phenotype: coiled, jerky-Unc or paralyzed) / any phene, mean % fraction of young adults exhibiting any phenotype (coiled, jerky-Unc or paralyzed): mean of three biological replicates; for EC50: Caenorhabditis elegans, any motor phenotype after 1 h on solid media, ± 95% CI, read-out: C. elegans - motor disruption EC50; for atypical locomotion (number of animals) / coiled (number of animals) / no phene (number of animals) / paralyzed (number of animals): young adults, 20 animals per trial, single replicate counts
[3] = conc 3.75, observed at one hour
[4] = 3.75uM, third c14 line of each analog
[5] = 15uM, second c14 line of each analog
[6] = 60uM, first c14 line of each analog

SMILES | mean % any phene (coiled, jerky-Unc or paralyzed) (Pristionchus pacificus; [3]) | mean % any phene (coiled, jerky-Unc or paralyzed) (Pristionchus pacificus; conc 15, observed at one hour) | mean % any phene (coiled, jerky-Unc or paralyzed) (Pristionchus pacificus; conc 60, observed at one hour) | EC50 (Pristionchus pacificus) | % effect (motility), DIROIM MF ([1]; 0.016 µM) | % effect (motility), DIROIM MF ([1]; 0.08 µM) | % effect (motility), DIROIM MF ([1]; 0.4 µM) | % effect (motility), DIROIM MF ([1]; 2 µM) | % effect (motility), DIROIM MF ([1]; 10 µM) | % effect (motility), DIROIM L4 ([2]; 10 µM) | % effect (motility), DIROIM L4 ([2]; 50 µM) | any phene (mean % fraction of young adults exhibiting any phenotype: coiled, jerky-Unc or paralyzed) (C. elegans; [4]) | any phene (mean % fraction of young adults exhibiting any phenotype: coiled, jerky-Unc or paralyzed) (C. elegans; [5]) | any phene (mean % fraction of young adults exhibiting any phenotype: coiled, jerky-Unc or paralyzed) (C. elegans; [6]) | EC50 (C. elegans) | % effect (motility), DIROIM L4 ([2]; 2 µM) | further results
FC(F)(F)c1cccc(N2CCN(CC3CC4C=CC3C4)CC2)c1 (stereo not shown) [Nemacol-47] | 79.1667% | 100% | 100% | 2.9 µM | 0% | 0% | 0% | 0% | 0% | 0% | 5% | 34.1667% | 81.6667% | 100% | 5.7 ± 1.7 µM |  | 
O=[N+]([O-])c1ccc(CN2CCN(C3CCCC3)CC2)cc1 [Nemacol-15] |  |  |  | > 60 µM | 0% | 0% | 0% | 0% | 0% | 0% | 10% |  |  |  | > 60 µM | 5% | any phene, mean % fraction of young adults exhibiting any phenotype (coiled, jerky-Unc or paralyzed) (C. elegans; 3.75uM): 0%; atypical locomotion (number of animals) (C. elegans; 3.75uM): 0; coiled (number of animals) (C. elegans; 3.75uM): 0; no phene (number of animals) (C. elegans; 3.75uM): 20; paralyzed (number of animals) (C. elegans; 3.75uM): 0; any phene, mean % fraction of young adults exhibiting any phenotype (coiled, jerky-Unc or paralyzed) (C. elegans; 15uM): 2.5%; atypical locomotion (number of animals) (C. elegans; 15uM): 0 and 1 and 2; coiled (number of animals) (C. elegans; 15uM): 0; no phene (number of animals) (C. elegans; 15uM): 20 and 19 and 18; paralyzed (number of animals) (C. elegans; 15uM): 0; any phene, mean % fraction of young adults exhibiting any phenotype (coiled, jerky-Unc or paralyzed) (C. elegans; 60uM): 23.3333%; atypical locomotion (number of animals) (C. elegans; 60uM): 2 and 1 and 4 and 5 and 9; coiled (number of animals) (C. elegans; 60uM): 0; no phene (number of animals) (C. elegans; 60uM): 18 and 19 and 15 and 14 and 11; paralyzed (number of animals) (C. elegans; 60uM): 0 and 3 and 2
Cc1cc(N2CCN(CC3CCCCC3)CC2)ccc1[N+](=O)[O-] [Nemacol-25, 1-(cyclohexylmethyl)−4-(3-methyl-4-nitrophenyl)piperazine] | 0.8333% | 6.667% | 29.1667% | > 60 µM | 0% | 0% | 0% | 40% | 60% | 11% | 100% | 2.5% | 20.8333% | 62.5% | 41 ± 26.8 µM | 0% | EC50 ([1]; Dirofilaria immitis, 72 h, read-out: Dirofilaria immitis filariae EC50): 5.11 µM
N#Cc1ccc(N2CCN(CC3CCCC3)CC2)cc1 [Nemacol-27, 4-(4-(cyclopentylmethyl)piperazin-1-yl)benzonitrile] | 9.167% and 5% | 46.6667% and 3.333% | 88.3333% | 16.4 ± 3.6 µM | 0% | 0% | 0% | 0% | 0% | 10% | 15% | 0.8333% | 29.1667% | 91.3333% | 21.9 ± 8.2 µM | 0% | 

Source: paper PMC10066365, “Nemacol is a small molecule inhibitor of C. elegans vesicular acetylcholine transporter with anthelmintic potential” (Nature Communications, 2023)
